Test results as given in PMC3043298, “Development of Novel In Silico Model to Predict Corneal Permeability for Congeneric Drugs: A QSPR Approach” (Journal of Biomedicine and Biotechnology, 2011).
Where a name gives a salt, the structure may show the parent alone.

Legend:
[1] = in vivo; conditions: both, New Zealand albino, rabbit; for Tmax / AUC / Cmax: topical or ocular
Experimental: In both groups, individual fluoroquinolones were dissolved at concentration of 0.1%. Thus, the total fluoroquinolones concentration in group A and group B were 0.4% and 0.5%, respectively. Sterile boric acid (1.9% w/v) in water was used as the aqueous media and the final formulations were filtered using 0.22 μ filter and autoclaved further before use.
Study protocol and experimental procedures were approved by the Institutional Animal Ethics Committee of All India Institute of Medical Sciences (AIIMS), New Delhi, India. New Zealand albino rabbits of either sex (1.5–2.0 kg) were obtained from Central Animal Facility, AIIMS. Animals were housed at standard laboratory conditions temperature-controlled room at 24 ± 2°C and humidity 55 ± 15% and given food and water ad libitum. All experiments were performed in accordance to the Association for Research in Vision and Ophthalmology (ARVO) statement for the use of animals in ophthalmic and vision research.
The sterile cocktail formulations of group A and group B were individually instilled (50 μL) on the lower fornix of rabbit eyes (n = 4) with the help of a calibrated micropipette. […] For each time point, a volume amounting to 50 μL of aqueous humor was aspirated through the corneal surface. The aqueous humor samples obtained were stored at −80°C until quantification by HPLC.
A Thermo Finnigan (Thermo Electron Corporation, USA) HPLC equipped with degasser, quaternary pump, autosampler, and PDA detector was employed for quantification of fluoroquinolones in samples. In the chromatographic quantification, analytical separation was performed using a C18 Symmetry Shield column (4.6 × 150 mm, 5 μm, Waters, USA) under a gradient flow of methanol, acetonitrile, and potassium phosphate buffer (20 mM, pH 2.5) at different ratio and time. For each spiked compound an external calibration curve was plotted and the analyte's spectra was assessed by matching them with custom made PDA spectra of inbuilt library of Chromquest version 4 (Thermo Electron Corporation, USA).
The dried concentrate was reconstituted with 100 μL mixture of water and acetonitrile (1 : 1), and 20 μL of the obtained supernatant was injected for quantification.
In Vivo Data Permeability coefficients (logPC) were obtained from controlled in vivo experiment conducted in rabbits using cassette dosing (N-in-One) approach.

[2] = Experimentally derived Δlog P by shake flask method (OECD No. 107 and 117); format: physicochemical; conditions: difference of log P(o/w) and log P(cyclohexane/water)

| Tmax [1] [h] | ΔlogP (Cyclohexane-Octanol) [2] | AUC [1] [ng·h/mL] | Cmax [1] [ng/mL] | logPC (30 min) [1] | logPC (240 min) [1] | Structure (SMILES) |
| --- | --- | --- | --- | --- | --- | --- |
| 1 | 0.734 | – | – | – | – | C[C@H]1COc2c(N3CCN(C)CC3)c(F)cc3c(=O)c(C(=O)O)cn1c23 [Levofloxacin] |
| 1 | 0.759 | – | – | – | – | CC1COc2c(N3CCN(C)CC3)c(F)cc3c(=O)c(C(=O)O)cn1c23 (stereo not shown) [Ofloxacin] |
| 0.5 | – | 1040 | 594 ± 294 | – | – | COc1c(N2C[C@@H]3CCCN[C@@H]3C2)c(F)cc2c(=O)c(C(=O)O)cn(C3CC3)c12 [Moxifloxacin] |
| 0.5 | 0.526 | 1180 | 682 ± 904 | −5.006 | −6.628 | COc1c(N2CCNC(C)C2)c(F)cc2c(=O)c(C(=O)O)cn(C3CC3)c12 (stereo not shown) [Gatifloxacin] |
| 0.5 | 1.025 | 1770 | 1150 ± 514 | −4.753 | −6.396 | C[C@@H]1CN(c2c(F)c(N)c3c(=O)c(C(=O)O)cn(C4CC4)c3c2F)C[C@H](C)N1 [Sparfloxacin] |
| 1 | 0.051 | 2850 | 456 ± 59 | −5.051 | −6.382 | CCn1cc(C(=O)O)c(=O)c2cc(F)c(N3CCNCC3)cc21 [Norfloxacin] |
| 1 | 1.113 | 833 | 266 ± 46 | −5.519 | −6.859 | CCn1cc(C(=O)O)c(=O)c2cc(F)c(N3CCNC(C)C3)c(F)c21 (stereo not shown) [Lomefloxacin HCl, Lomefloxacin] |
